# Read-outs that look alike come from different tables or passages of the source.
# Tests used:
# [1] = MTT relative viability, PCMV-SEAP (hTERT-BJ1) cells; assay type: cell-based; conditions: human, stable PCMV-SEAP reporter clone
# Text: Culture media were changed every 3 days. […] The stable clones were selected using G418.
# human hepatoma G2 cells = experiment: Cytotoxicity assay (XTT colorimetric), Hep G2; assay type: cell-based; conditions: 48 h of drug exposure
# [2] = MTT relative viability, PhTERT-SEAP (H1299) cells; conditions: human
# [3] = MTT relative viability, PhTERT-SEAP (hTERT-BJ1) cells; conditions: human
# Description: (§2) The tetrazolium reagent (MTT; 3-(4,5-di-methylthiazol)-2,5-diphenyl tetrazolium bromide, USB) was designed to yield a colored formazan upon metabolic reduction by viable cells. Approximately […] cells were plated onto each well of a 96-well plate and incubated in 5% CO2 at 37° C. for 24 h. To assess the in vitro cytotoxicity, each compound was dissolved in DMSO and prepared immediately before the experiments and was diluted into the complete medium before addition to cell cultures. Test compounds were then added to the culture medium for designated various concentrations. After 48 h, an amount of 25 μL of MTT was added to each well, and the samples were incubated at 37° C. for 4 h. A 100 μL solution of lysis buffer containing 20% SDS and 50% N,N-dimethylformamide was added to each well and incubated at 37° C. for another 16 h. The absorbency at 550 nm was measured using an ELISA reader.
# (§3) Non small lung cancer cells H1299 (telomerase positive) were grown in RPMI 1640 media supplemented with 10% fetal bovine serum, 100 units/mL penicillin and 100 mg/mL streptomycin in a humidified atmosphere with 5% CO2 at 37° C. The hTERT immortalized hTERT-BJ1 (BD Biosciences Clontech)^39 were grown in DMEM media supplemented with 10% fetal calf serum, 100 units/mL penicillin and 100 mg/mL streptomycin, 1 mM sodium pyruvate, and 4 mM I-arginine in a humidified atmosphere with 5% CO2 at 37° C. Culture media were changed every 3 days. […] The stable clones derived from H1299 or hTERT-BJ1 were cultured using conditions that are similar to their parental cells.
# [4] = system: transcriptional activity of hTERT; experiment: SEAP reporter assay of hTERT expression, PhTERT-SEAP (H1299); assay type: cell-based, human; conditions: for Relative SEAP activity (%): hTERT-H1299
# Outline: (§1)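 Drug exposure: varying amounts, 24 h, following 24 h culture at 37° C and fresh medium. Media heat-inactivated (65° C, 10 min) to remove endogenous phosphatases, then combined 1:1 with diethanolamine/MgCl2/homoarginine buffer and 12 mM p-nitrophenyl phosphate; A405 slope recorded.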
# CMV promoter = experiment: SEAP reporter assay of CMV promoter activity, PCMV-SEAP (hTERT-BJ1); assay type: cell-based; conditions: Homo sapiens, read-out: Relative SEAP activity (%)
# [5] = system: transcriptional activity of hTERT; experiment: SEAP reporter assay of hTERT expression, PhTERT-SEAP (hTERT-BJ1); assay type: cell-based, human; conditions: hTERT-BJ1
# Outline: as §1
# rat glioma C6 cells = experiment: Cytotoxicity assay (XTT colorimetric), C6 cells; assay type: cell-based; conditions: 48 h of drug exposure
# [6] = system: iron-induced lipid peroxidation in rat brain homogenates; experiment: Iron-induced lipid peroxidation in rat brain homogenates; conditions: 10 mM; relative percentage of inhibition (Table 1)
# [7] = system: hepatitis B virus transfected hepatoma cell lines, HepG 2.2.15 cells; experiment: Cytotoxicity assay, 2.2.15 cells; assay type: cell-based, human; conditions: 48 h of drug exposure
# [8] = system: non-small-cell lung cancer cells H1299
# Description for hTERT-BJ1 cells: as §2, §3
smiles,measurement,setting,value
"COc1ccc(CSc2cccc3c2C(=O)c2cccc(SCc4ccc(OC)cc4)c2C3=O)cc1 [IIj, 1,5-Bis(p-methoxybenzylthio)-Anthraquinone]","viability at 48 h, 2 µM",[1]; 2.0 μM,116 ± 13%
same,"viability at 48 h, 22 µM",[1]; 22 μM,67 ± 18%
same,"viability at 48 h, 220 µM",[1]; 220 μM,52 ± 7%
same,melting point,,297 to 299 °C
same,IC50,"human hepatoma G2 cells; Homo sapiens, HepG2",28.6 ± 1.2 µM
same,"viability at 48 h, 2.2 µM",[2],89 ± 6.1%
same,"viability at 48 h, 22 µM",[2],59 ± 5.4%
same,"viability at 48 h, 220 µM",[2],42 ± 0.3%
same,"viability at 48 h, 2.2 µM",[3],119 ± 9.4%
same,"viability at 48 h, 22 µM",[3],98 ± 13.4%
same,"viability at 48 h, 220 µM",[3],62 ± 6.4%
same,activity at 2.2 µM,"[4]; Homo sapiens, NCI-H1299, 2.2 μM, H1299, read-out: Relative SEAP activity (%)",92 ± 3.3%
same,activity at 22 µM,"[4]; Homo sapiens, NCI-H1299, 22 μM, H1299, read-out: Relative SEAP activity (%)",96 ± 8.5%
same,activity at 220 µM,"[4]; Homo sapiens, NCI-H1299, 220 μM, H1299, read-out: Relative SEAP activity (%)",88 ± 5.6%
same,activity at 2 µM,CMV promoter; 2.0 μM,103 ± 15%
same,activity at 22 µM,CMV promoter; 22 μM,102 ± 8%
same,activity at 220 µM,CMV promoter; 220 μM,100 ± 8%
same,activity at 2.2 µM,"[5]; Homo sapiens, 2.2 μM, read-out: Relative SEAP activity (%)",142 ± 27.7%
same,activity at 22 µM,"[5]; Homo sapiens, 22 μM, read-out: Relative SEAP activity (%)",141 ± 22.6%
same,activity at 220 µM,"[5]; Homo sapiens, 220 μM, read-out: Relative SEAP activity (%)",118 ± 19.2%
same,IC50,"rat glioma C6 cells; Rattus norvegicus, C6",25.1 ± 2.8 µM
same,LP (%) (10 mM),[6],67 ± 2.9%
"O=C1c2cccc(NCCO)c2C(=O)c2cccc(NCCO)c21 [IVb, 1,5-Bis(ethanolamino)anthraquinone]",Relative MTT viability (%),hTERT-BJ1 cells; 3 µM,116 ± 5.6%
same,Relative MTT viability (%),hTERT-BJ1 cells; 30 µM,90 ± 26.9%
same,Relative MTT viability (%),hTERT-BJ1 cells; 308 µM,69 ± 18.7%
same,IC50,[7],19.3 µM
same,IC50,human hepatoma G2 cells,> 20 µM
same,Relative MTT viability (%),[8]; 3 µM,105 ± 6.3%
same,Relative MTT viability (%),[8]; 30 µM,88 ± 9.1%
same,Relative MTT viability (%),[8]; 308 µM,53 ± 2.8%
same,Relative SEAP activity (%),[4]; 3.0 μM,91 ± 3.9%
same,Relative SEAP activity (%),[4]; 30 μM,88 ± 4.5%
same,Relative SEAP activity (%),[4]; 308 μM,5.7 ± 1.1%
same,Relative SEAP activity (%),[5]; 3.0 μM,45 ± 20.6%
same,Relative SEAP activity (%),[5]; 30 μM,16 ± 13.1%
same,Relative SEAP activity (%),[5]; 308 μM,11 ± 11.6%
same,IC50,rat glioma C6 cells,> 20 µM
"O=C1c2cccc(NCCNCCO)c2C(=O)c2cccc(NCCNCCO)c21 [IVe, 1,5-Bis[2-(2-Aminoethylamino)ethanol]anthraquinone]",Relative MTT viability (%),hTERT-BJ1 cells; 2.4 µM,84 ± 19.8%
same,Relative MTT viability (%),hTERT-BJ1 cells; 24 µM,60 ± 11.2%
same,Relative MTT viability (%),hTERT-BJ1 cells; 242 µM,44 ± 12.9%
same,IC50,[7],8.35 µM
same,IC50,human hepatoma G2 cells,1.2 ± 0.02 µM
same,Relative MTT viability (%),[8]; 2.4 µM,97 ± 8.7%
same,Relative MTT viability (%),[8]; 24 µM,37 ± 3.9%
same,Relative MTT viability (%),[8]; 242 µM,11 ± 4.1%
same,Relative SEAP activity (%),[4]; 2.4 μM,87 ± 3.8%
same,Relative SEAP activity (%),[4]; 24 μM,43 ± 5.5%
same,Relative SEAP activity (%),[4]; 242 μM,40 ± 6.7%
same,Relative SEAP activity (%),[5]; 2.4 μM,60 ± 11.6%
same,Relative SEAP activity (%),[5]; 24 μM,40 ± 17.3%
same,Relative SEAP activity (%),[5]; 242 μM,52 ± 19.1%
same,IC50,rat glioma C6 cells,1.17 µM
"O=C1c2cccc(NCCCO)c2C(=O)c2cccc(NCCCO)c21 [IVh, 1,5-Bis(propanolamino)anthraquinone]",Relative MTT viability (%),hTERT-BJ1 cells; 2.8 µM,72 ± 7.4%
same,Relative MTT viability (%),hTERT-BJ1 cells; 28 µM,39 ± 10.5%
same,Relative MTT viability (%),hTERT-BJ1 cells; 282 µM,26 ± 15.9%
same,IC50,[7],> 20 µM
same,IC50,human hepatoma G2 cells,> 20 µM
same,Relative MTT viability (%),[8]; 2.8 µM,107 ± 5.0%
same,Relative MTT viability (%),[8]; 28 µM,49 ± 3.5%
same,Relative MTT viability (%),[8]; 282 µM,40 ± 10.4%
same,Relative SEAP activity (%),[4]; 2.8 μM,88 ± 4.9%
same,Relative SEAP activity (%),[4]; 28 μM,69 ± 5.4%
same,Relative SEAP activity (%),[4]; 282 μM,33 ± 2.2%
same,Relative SEAP activity (%),[5]; 2.8 μM,41 ± 12.5%
same,Relative SEAP activity (%),[5]; 28 μM,0 ± 22.1%
same,Relative SEAP activity (%),[5]; 282 μM,(−3) ± 10.0^ %
same,IC50,rat glioma C6 cells,> 20 µM
"O=C1c2cccc(NCCCCO)c2C(=O)c2cccc(NCCCCO)c21 [IVk, 1,5-Bis(butanolamino-)-anthraquinone]",Relative MTT viability (%),hTERT-BJ1 cells; 2.6 µM,101 ± 10.5%
same,Relative MTT viability (%),hTERT-BJ1 cells; 26 µM,101 ± 8.8%
same,Relative MTT viability (%),hTERT-BJ1 cells; 265 µM,91 ± 11.8%
same,IC50,[7],10.3 ± 0.24 µM
same,IC50,human hepatoma G2 cells,> 20 µM
same,Relative MTT viability (%),[8]; 2.6 µM,114 ± 8.1%
same,Relative MTT viability (%),[8]; 26 µM,110 ± 7.1%
same,Relative MTT viability (%),[8]; 265 µM,16 ± 3.4%
same,Relative SEAP activity (%),[4]; 2.6 μM,89 ± 4.9%
same,Relative SEAP activity (%),[4]; 26 μM,71 ± 9.8%
same,Relative SEAP activity (%),[4]; 265 μM,27 ± 2.0%
same,Relative SEAP activity (%),[5]; 2.6 μM,114 ± 20.5%
same,Relative SEAP activity (%),[5]; 26 μM,113 ± 21.6%
same,Relative SEAP activity (%),[5]; 265 μM,127 ± 19.9%
same,IC50,rat glioma C6 cells,> 20 µM

# — patent publication US20050009924A1 (priority 2003, published 2005)
